# In BindingDB's records for patent US12552811 (Abbisko Therapeutics Co., 2026):
# Biological target: Programmed cell death 1 ligand/protein 1 (Homo sapiens, UniProt Q15116+Q9NZQ7)
# Assay: PD1-PDL1 HTRF Binding Activity Assay
# Protocol: 1) Pre-diluted compound solution, 4 μL of Tag1-PD-L1 and 4 μL of Tag2-PD1 were added to each well of a 384-well plate:2) After the mixture was incubated at room temperature for 15 min, 5 μL of anti-Tag1-Eu3+ antibody and 5 μL of anti-Tag2-XL665 antibody were then added;3) After incubated for 2 hrs at room temperature or overnight at 4° C., plates were read on Envision of Pelkin Elmer; and readings at 665 nm and 620 nm were recorded, and the ratio of the two readings was taken as a reading for each well;4) The reading of each well after compound treatment was compared with the reading of DMSO treated wells to obtain the percent inhibition of the compound;5) IC50 values of compounds and positive compounds of the examples of the present invention were determined by non-linear regression analysis of percent inhibition at different compound concentrations.
# Programmed cell death 1 ligand/protein 1, sequence (Q9NZQ7 whole entry): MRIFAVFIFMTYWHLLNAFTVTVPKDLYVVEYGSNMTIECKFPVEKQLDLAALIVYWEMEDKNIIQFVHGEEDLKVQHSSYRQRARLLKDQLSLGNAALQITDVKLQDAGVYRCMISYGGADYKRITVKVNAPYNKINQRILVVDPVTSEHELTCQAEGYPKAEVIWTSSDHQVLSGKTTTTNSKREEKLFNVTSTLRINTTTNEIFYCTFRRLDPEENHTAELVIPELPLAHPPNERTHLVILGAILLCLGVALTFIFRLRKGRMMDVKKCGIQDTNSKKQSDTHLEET
# Programmed cell death 1 ligand/protein 1, sequence (Q15116 whole entry): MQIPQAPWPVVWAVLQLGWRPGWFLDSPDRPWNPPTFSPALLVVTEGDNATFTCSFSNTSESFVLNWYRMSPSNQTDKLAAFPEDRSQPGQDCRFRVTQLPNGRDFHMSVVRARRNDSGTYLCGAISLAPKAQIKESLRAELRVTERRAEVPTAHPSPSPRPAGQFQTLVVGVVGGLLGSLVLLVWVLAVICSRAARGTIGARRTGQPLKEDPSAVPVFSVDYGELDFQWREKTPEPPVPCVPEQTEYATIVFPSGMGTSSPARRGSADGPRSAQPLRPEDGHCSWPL
smiles,measurement,value
"CC(C)N1CCc2cc(C(=O)Nc3cccc(-c4cccc(NC(=O)c5cc(C6CC6)c(CN6CCCC[C@H]6C(=O)O)cn5)c4Cl)c3Cl)ncc2C1 [US12552811, Example 32]",IC50,0.661 nM
